Laboratory results from patent US11339110B2, “Efficient crystallization process for preparing ultrapure Treprostinil and crystal prepared therefrom” (CHIROGATE INTERNATIONAL INC., priority 2019, dated 2022).

How the values were obtained:
Format in all cases: physicochemical
[1] = Stability of Treprostinil in ethanol (UPLC tracing of ethyl ester and dimers); settings: 40±1° C.; for Treprostinil / Treprostinil dimer-1 (IT201d1) / Treprostinil dimer-2 (IT201d2) / Treprostinil ethyl ester (IT201e2): 1.00 g in 5 ml ethanol, UPLC
Experimental: (§1) Ultra Performance Liquid Chromatography (UPLC) Analysis: The UPLC spectra were collected on a Waters ACQUITY UPLC instrument. The conditions were shown as the following: The sample is diluted to 1 mg/ml by […] (v/v) acetonitrile/H2O. The column is Waters BEH C18, 1.7 μm, 2.1*150 mm. The mobile phase is 60/40 (v/v) buffer/acetonitrile from 0 to 10 min, gradient changes of buffer/acetonitrile from 60/40 to 5/95 (v/v) (curve 6) from 10 to 20 min, 5/95 (v/v) buffer/acetonitrile from 20 to 25 min, gradient changes of buffer/acetonitrile from 5/95 to 0/100 (v/v) (curve 6) from 25 to 30 min, 0/100 (v/v) buffer/acetonitrile from 30 to 35 min. Buffer solution is pH 3.0 aqueous solution adjusted by trifluoroacetic acid. The flow rate is set as 0.42 ml/min. Column temperature is set as 45° C., sample temperature is set as 25° C. Injection is 1.5 μL. Run time is 35 min. UV detector is set as 210 nm.
1.00 g Treprostinil was dissolved in 5 ml ethanol in a glass vial at room temperature to form a homogenous solution, which was stirred at 40±1° C. oil bath and periodically sampled to UPLC measurement for tracing the formation of Treprostinil ethyl ester and Treprostinil dimers.

[2] = Stability of Treprostinil stored in a glass vial at 40° C. (UPLC tracing of ethyl ester and dimers); settings: 40±1° C.; for Treprostinil / Treprostinil dimer-1 (IT201d1) / Treprostinil dimer-2 (IT201d2): no solvent, glass vial, UPLC
Experimental: as §1
0.01% g Treprostinil was placed in a glass vial and stirred at 40±1° C. oil bath and periodically sampled to UPLC measurement for tracing the formation of Treprostinil ethyl ester and Treprostinil dimers.

[3] = Filterability of Treprostinil crystal (microfiltration, pressure change during filtering); settings: 100 ml sample solution, 25±1° C., 0.22 μm hydrophilic PVDF membrane
Experimental: The filterability of sample solution is numerical estimated by the pressure changes inside the microfiltration assemblies during filtering. The microfiltration assemblies with 47 mm fritted glass, 0.22 μm hydrophilic PVDF filter membrane, 250 ml bottle, PANCHUM VP-900 dry pump, and an external pressure gauge were settled for tracing the pressure changes during filtration. The usage volume of sample solution for filtering was set as 100 ml and the filtering temperature was set as 25±1° C. for comparing the filterability of samples in a similar experimental condition.
Sample of crystalline Form I of anhydrous Treprostinil in ethyl acetate (containing 3% v/v water) was prepared from Example 5, and the concentration is about 0.05 g/ml. Sample of crystalline Form A of anhydrous Treprostinil in acetonitrile was prepared as disclosed by U.S. Pat. No. 9,278,903 Example 12, and the concentration is about 0.02 g/ml. […] The pressure changes of pure ethyl acetate, pure acetonitrile, crystalline Form I of anhydrous Treprostinil in ethyl acetate (containing 3% v/v water), crystalline Form A of anhydrous Treprostinil in acetonitrile, and monohydrated Treprostinil crystal in ethanol/water during filtration were measured and the results am shown in FIG. 10.

CCCCC[C@H](O)CC[C@@H]1[C@H]2Cc3cccc(OCC(=O)O)c3C[C@H]2C[C@H]1O [Treprostinil]
Treprostinil ([1]; time 0 h): 99.88% | Treprostinil dimer-1 (IT201d1) ([1]; time 0 h): 0.04% | Treprostinil dimer-2 (IT201d2) ([1]; time 0 h): 0.06% | Treprostinil ethyl ester (IT201e2) ([1]; time 0 h): 0.02% | Treprostinil ([1]; time 2 h): 99.50% | Treprostinil dimer-1 (IT201d1) ([1]; time 2 h): 0.04% | Treprostinil dimer-2 (IT201d2) ([1]; time 2 h): 0.07% | Treprostinil ethyl ester (IT201e2) ([1]; time 2 h): 0.39% | Treprostinil ([1]; time 4 h): 99.07% | Treprostinil dimer-1 (IT201d1) ([1]; time 4 h): 0.06% | Treprostinil dimer-2 (IT201d2) ([1]; time 4 h): 0.06% | Treprostinil ethyl ester (IT201e2) ([1]; time 4 h): 0.81% | Treprostinil ([1]; time 6 h): 98.68% | Treprostinil dimer-1 (IT201d1) ([1]; time 6 h): 0.07% | Treprostinil dimer-2 (IT201d2) ([1]; time 6 h): 0.07% | Treprostinil ethyl ester (IT201e2) ([1]; time 6 h): 1.18% | Treprostinil ([1]; time 8 h): 98.15% | Treprostinil dimer-1 (IT201d1) ([1]; time 8 h): 0.10% | Treprostinil dimer-2 (IT201d2) ([1]; time 8 h): 0.11% | Treprostinil ethyl ester (IT201e2) ([1]; time 8 h): 1.64% | Treprostinil ([1]; time 10 h): 97.73% | Treprostinil dimer-1 (IT201d1) ([1]; time 10 h): 0.12% | Treprostinil dimer-2 (IT201d2) ([1]; time 10 h): 0.11% | Treprostinil ethyl ester (IT201e2) ([1]; time 10 h): 2.04% | Treprostinil ([1]; time 12 h): 97.41% | Treprostinil dimer-1 (IT201d1) ([1]; time 12 h): 0.13% | Treprostinil dimer-2 (IT201d2) ([1]; time 12 h): 0.09% | Treprostinil ethyl ester (IT201e2) ([1]; time 12 h): 2.37% | formation rate of Treprostinil dimers ([1]; dissolved in ethanol): about 0.01 % per hour | formation rate of Treprostinil ethyl ester ([1]; dissolved in ethanol): about 0.2 % per hour | formation rate of Treprostinil dimers ([2]; Treprostinil stored without solvent): about 0.01 % per hour | Treprostinil ([2]; time 0 h): 99.90% | Treprostinil dimer-1 (IT201d1) ([2]; time 0 h): 0.04% | Treprostinil dimer-2 (IT201d2) ([2]; time 0 h): 0.06% | Treprostinil ([2]; time 2 h): 99.89% | Treprostinil dimer-1 (IT201d1) ([2]; time 2 h): 0.06% | Treprostinil dimer-2 (IT201d2) ([2]; time 2 h): 0.05% | Treprostinil ([2]; time 4 h): 99.88% | Treprostinil dimer-1 (IT201d1) ([2]; time 4 h): 0.06% | Treprostinil dimer-2 (IT201d2) ([2]; time 4 h): 0.06% | Treprostinil ([2]; time 6 h): 99.84% | Treprostinil dimer-1 (IT201d1) ([2]; time 6 h): 0.07% | Treprostinil dimer-2 (IT201d2) ([2]; time 6 h): 0.08% | Treprostinil ([2]; time 8 h): 99.83% | Treprostinil dimer-1 (IT201d1) ([2]; time 8 h): 0.08% | Treprostinil dimer-2 (IT201d2) ([2]; time 8 h): 0.09% | Treprostinil ([2]; time 10 h): 99.79% | Treprostinil dimer-1 (IT201d1) ([2]; time 10 h): 0.09% | Treprostinil dimer-2 (IT201d2) ([2]; time 10 h): 0.12% | Treprostinil ([2]; time 12 h): 99.77% | Treprostinil dimer-1 (IT201d1) ([2]; time 12 h): 0.10% | Treprostinil dimer-2 (IT201d2) ([2]; time 12 h): 0.13% | finish time of filtration ([3]; 47 mm fritted glass): about 92 seconds | solution filtered ([3]; until about 180 seconds): ~80%
